Structures can show the parent of a compound that is named as a salt. Where two headings read alike, the source gives them in different places.
How the values were obtained:
[1] = system: formalin edema of a foot in the rat; conditions: for other symptoms of inflammation (hyperemia, painfulness) and formation of necrotic foci: formalin inflammation
Experimental: (§1) The growth of foot endema in the rat was registered in dynamics after each hour from the moment of subplantar administration of a stimulus during 5 hours. Percentage of inhibition of the foor emeda in the rat was calculated from the following formula: [formula] where
(§2) Vk is the volume of a control edematic foot minus the initial volume of the same foot prior to edema;
(§3) Vo is the volume of the tested edematic foot minus the initial volume of the same foot prior to edema.

pyrogenal fever = assay: Antipyretic effect in pyrogenal fever; conditions: rats
Experimental: Antipyretic effect of 2-(o-carboxyphenylamino)-6H-pyrimido(2,1-b)-quinazolone-6 and its derivatives were investigated in rats suffering from pyrogenal fever. Maximum decrease in the temperature (degrees) was determined.

cotton granuloma = assay: whole plant or invertebrate
Text: The term "cotton granuloma" means hereinafter the formation of a granular-fibrous tissue around cotton balls implanted into experimental animals.

rats = assay: in vivo; conditions: rat, 168 h
Experimental: (§4) 2-(o-carboxyphenylamino)-6-H-pyrimido(2,1-b)-quinazolone-6 and its derivatives were tested for acute toxicity.
(§5) Acute toxicity of 2-(o-carboxyphenylamino)-6H-pyrimido(2,1-b)-quinazolone-6and its derivatives was determined in intra-abdominal and peroral administration; for cats in peroral administration. […] The statistical analysis of obtained data was carried out in accordance with the method of Litchfield, Wilcockson and Van der Waerden.

white mice = assay: in vivo; conditions: mouse, 168 h
Experimental: as §4, §5

carrageenin edema = system: carrageenin edema
Experimental: as §1, §2, §3
A carrageenin edema was induced by subplantar administration in rats of 0.1 ml 1% solution of carrageenin (polysaccharide prepared from Iceland or pearl moss).

rabbits = assay: Acute toxicity in rabbits (LD50); conditions: rabbit, in vivo, 10080 min
Experimental: as §4, §5

[2] = system: threshold of pain sensitivity in contact-heat stimulation
[3] = Acute toxicity in cats (LD50); conditions: cat, in vivo, po
Experimental: as §4, §5

in vivo = assay: in vivo
Experimental: as §4, §5

[4] = Acute toxicity in rabbits (LD50); conditions: rabbit, in vivo, ip, rabbits, intra-abdominal, Van der Waerden
Experimental: as §4, §5

Solubility = type: physicochemical
ovalbumin edema = assay: Ovalbumin edema of rat foot; type: in vivo, rats; conditions: 1/10 LD50 intra-abdominal
Experimental: An ovalbumin edema was induced by subplantar administration in rats of egg albumin (0.1 ml per foot). The edema developed very intensely, i.e. reached the maximum magnitude (191%) as soon as 1 hour following the injection of ovalbumin, and completely disappeared by the end of the day.
The preparations under studies were administered in the given investigations in a dose corresponding to 1/10LD50 for the rats in the intra-abdominal administration.

[5] = rat, in vivo, ip, hydrochloride
[6] = read-out: Percentage of inhibition (cotton granuloma)

O=C(O)c1ccccc1Nc1ccn2c(=O)c3ccccc3nc2n1 [2-(o-carboxyphenylamino)6H-pyrimido(2,1-b)-quinazolone-6 hydrochloride]
Percentage of inhibition (formalin edema) ([1]; 5 mg/kg intra-abdominal): 31% | Percentage of inhibition (formalin edema) ([1]; 10 mg/kg intra-abdominal): 50% | Percentage of inhibition (formalin edema) ([1]; 49 mg/kg intra-abdominal): 57% | Percentage of inhibition (formalin edema) ([1]; 98 mg/kg intra-abdominal): 71% | depression of formalin edema of a foot in the rat (in words) ([1]; comparison of preparations): the most actively depressed | Therapeutic index (formalin edema) [1, 5]: 61.2 | Antipyretic effect (maximum decrease in temperature) (pyrogenal fever; 5% of LD50 (hydrochloride's dose not printed separately)): 1.4 °C | Percentage of inhibition (cotton granuloma) (cotton granuloma; 48 mg/kg): 18% | Percentage of inhibition (cotton granuloma) (cotton granuloma; 95 mg/kg): 24% | Percentage of inhibition (cotton granuloma) (cotton granuloma; 190 mg/kg): 52% | antiproliferative effect (in words) (cotton granuloma; cotton granuloma): the most effective among the given preparations | pharmacotherapeutic width of effect relative to mephenamine acid, sodium salicylate, and phenylbutazone (cotton granuloma; cotton granuloma): three times | Therapeutic index (cotton granuloma) (cotton granuloma; in vivo, hydrochloride): 22.3 | LD50 (rats; ip): 980 mg/kg | LD50 (rats; po): 3800 mg/kg | LD50 (white mice; ip): 1050 mg/kg | LD50 (white mice; po): 3400 mg/kg | Percentage of inhibition (carrageenin edema) (carrageenin edema; 25 mg/kg intra-abdominal): 12% | Percentage of inhibition (carrageenin edema) (carrageenin edema; 49 mg/kg intra-abdominal): 26% | Percentage of inhibition (carrageenin edema) (carrageenin edema; 98 mg/kg intra-abdominal): 55% | Therapeutic index (carrageenin edema) (carrageenin edema; [5]): 10.9 | LD50 (rabbits; ip): 1750 mg/kg | LD50 (rabbits; po, hydrochloride): 500 mg/kg | Increase in latent period of pain reaction in mice ([2]; 52 mg/kg, hydrochloride): 31% | Increase in latent period of pain reaction in mice ([2]; 105 mg/kg, hydrochloride): 52% | Increase in latent period of pain reaction in mice ([2]; 157 mg/kg, hydrochloride): 62% | Therapeutic index (analgetic activity) ([2]; mouse, in vivo, hydrochloride): 11.0

O=C(O)c1ccccc1Nc1ccn2c(=O)c3ccccc3nc2n1
LD50 at 168 h [3]: 5000 mg/kg | LD50 at 168 h (in vivo; mouse, ip): 1050 mg/kg | LD50 at 168 h (in vivo; mouse, po): 3400 mg/kg | LD50 at 168 h (in vivo; rat, ip): 980 mg/kg | LD50 at 168 h (in vivo; rat, po): 3800 mg/kg | LD50 at 168 h [4]: 1750 mg/kg

CC(C)Cc1ccc(C(C)C(=O)O)cc1 (centres unmarked) [Bruphen, 2-(para-isobutylphenyl)-propionic acid]
Antipyretic effect (maximum decrease in temperature) (pyrogenal fever; 70% of LD50): 1.3 °C

O=C(O)c1ccccc1Nc1ccn2c(=O)c3ccccc3nc2n1 [ethanol ammonium salt of 2-(o-carboxyphenylamino)-6H-pyrimid]
solubility (in words) (Solubility): soluble in water

CNC(=O)c1ccccc1Nc1ccn2c(=O)c3ccccc3nc2n1 [2-(o-methylcarbamidephenylamino)-6H-pyrimido(2,1-b)-quinazolone-6]
LD50 at 168 h (in vivo; mouse, ip): 3000 mg/kg

COc1ccc2c(c1)c(CC(=O)O)c(C)n2C(=O)c1ccc(Cl)cc1 [Indomethacin, 1-(para-chlorobenzoyl)5-methoxy-2-methyl-indole-3-acetic acid]
Antipyretic effect (maximum decrease in temperature) (pyrogenal fever; 70% of LD50): 0.7 °C

CCCCC1C(=O)N(c2ccccc2)N(c2ccccc2)C1=O [Phenylbutazone, 1,2-diphenyl-4-butyl pyrazolidine-dion-3,5]
Percentage of inhibition (formalin edema) ([1]; 21 mg/kg intra-abdominal): 17% | Percentage of inhibition (formalin edema) ([1]; 42 mg/kg intra-abdominal): 40% | Percentage of inhibition (formalin edema) ([1]; 82 mg/kg intra-abdominal): 51% | antiexudative / antiinflammatory effect in ovalbumin edema (in words) (ovalbumin edema): did not produce antiedematic effect | Percentage of inhibition (carrageenin edema) (carrageenin edema; 21 mg/kg intra-abdominal): 27% | Percentage of inhibition (carrageenin edema) (carrageenin edema; 42 mg/kg intra-abdominal): 44% | Percentage of inhibition (carrageenin edema) (carrageenin edema; 84 mg/kg intra-abdominal): 51% | Increase in latent period of pain reaction in mice ([2]; 25 mg/kg): 8% | Increase in latent period of pain reaction in mice ([2]; 50 mg/kg): 43% | Increase in latent period of pain reaction in mice ([2]; 100 mg/kg): 92%

Cc1cccc(Nc2ccccc2C(=O)O)c1C [Mephenamine acid, N--(2,3-dimethylphenyl) anthranilic acid]
Percentage of inhibition (formalin edema) ([1]; 9 mg/kg intra-abdominal): 22% | Percentage of inhibition (formalin edema) ([1]; 18 mg/kg intra-abdominal): 24% | Percentage of inhibition (formalin edema) ([1]; 36 mg/kg intra-abdominal): 31% | Percentage of inhibition (formalin edema) ([1]; 72 mg/kg intra-abdominal): 33% | other symptoms of inflammation (hyperemia, painfulness) and formation of necrotic foci [1]: almost noncharacteristic | Antipyretic effect (maximum decrease in temperature) (pyrogenal fever; 70% of LD50): 1.2 °C | antiproliferative effect (in words) (cotton granuloma; cotton granuloma): the most effective among the given preparations | Percentage of inhibition (carrageenin edema) (carrageenin edema; 25 mg/kg intra-abdominal): 33% | Percentage of inhibition (carrageenin edema) (carrageenin edema; 50 mg/kg intra-abdominal): 44% | Percentage of inhibition (carrageenin edema) (carrageenin edema; 100 mg/kg intra-abdominal): 50% | Increase in latent period of pain reaction in mice ([2]; 3.5 mg/kg): 18% | Increase in latent period of pain reaction in mice ([2]; 7.0 mg/kg): 36% | Increase in latent period of pain reaction in mice ([2]; 15 mg/kg): 43% | analgetic activity (in words) ([2]; contact-heat stimulation): possessed the most expressed analgetic effect

O=C(O)c1ccccc1O [Sodium salicylate, 6-oxybenzoic acid, sodium salt]
Percentage of inhibition (formalin edema) ([1]; 65 mg/kg intra-abdominal): 14% | Percentage of inhibition (formalin edema) ([1]; 130 mg/kg intra-abdominal): 24% | Percentage of inhibition (formalin edema) ([1]; 260 mg/kg intra-abdominal): 41% | Therapeutic index (formalin edema) ([1]; LD50/ED50, intra-abdominal): 1.8 | other symptoms of inflammation (hyperemia, painfulness) and formation of necrotic foci [1]: almost noncharacteristic | Therapeutic index (cotton granuloma) (cotton granuloma; LD50/ED50): 7.27 | inhibition at 60 mg/kg (cotton granuloma; [6]): 8% | inhibition at 80 mg/kg (cotton granuloma; [6]): 20% | inhibition at 160 mg/kg (cotton granuloma; [6]): 36% | inhibition at 240 mg/kg (cotton granuloma; [6]): 52% | Percentage of inhibition (carrageenin edema) (carrageenin edema; 65 mg/kg intra-abdominal): 14% | Percentage of inhibition (carrageenin edema) (carrageenin edema; 90 mg/kg intra-abdominal): 32% | Percentage of inhibition (carrageenin edema) (carrageenin edema; 130 mg/kg intra-abdominal): 56% | Therapeutic index (carrageenin edema) (carrageenin edema; LD50/ED50, intra-abdominal): 5.6 | Increase in latent period of pain reaction in mice ([2]; 32 mg/kg): 28% | Increase in latent period of pain reaction in mice ([2]; 65 mg/kg): 38% | Increase in latent period of pain reaction in mice ([2]; 130 mg/kg): 59% | Therapeutic index (analgetic activity) ([2]; LD50/ED50, contact-heat stimulation): 5.9

COC(=O)c1ccccc1Nc1ccn2c(=O)c3ccccc3nc2n1
LD50 at 168 h (in vivo; mouse, ip): 1160 mg/kg
